Source: patent US20120064056A1, “DICHLORACETATE IN COMBINATION WITH CLINICALLY HIGH LEVELS OF CARDIOPROTECTIVE OR HEMODYNAMIC DRUGS” (THE GOVERNORS OF THE UNIVERSITY OF ALBERTA TEC Edmonton, priority 2002, published 2012)

Legend:
[1] = test system: isolated rat hearts subjected to low flow demand ischemia; test: Isolated working rat heart, low flow demand ischemia: glycolysis and glucose oxidation; conditions: FIG. 22, FIG. 28
[2] = test system: isolated rat hearts subjected to low flow demand ischemia; test: Isolated working rat heart, low flow demand ischemia: cardiac function and efficiency; conditions: for Aortic Outflow / Cardiac Output / Coronary Flow / HR × PSP / Heart Rate / Peak Systolic Pressure: DCA 2 mM, diltiazem 0.8 μM, metoprolol 1 μM
Protocol: Hearts were trimmed of excess tissue, and the pulmonary artery and the opening to the left atrium were then cannulated. After 15 min of Langendorff perfusion, hearts were switched to the working mode by clamping the aortic inflow line from the Langendorff reservoir and opening the left atrial inflow line. The perfusate was delivered from an oxygenator into the left atrium at a constant preload pressure of 11 mm Hg. […] The afterload was set at a hydrostatic pressure of 80 mm Hg. […] Palmitate was bound to the albumin as described previously ([…]., et al. J Biol. Chem. 267:3825-3831 (1992)). […] For the aerobic model hearts, all tested compounds were introduced into the heart 5 minutes into the working mode following Langendorff Perfusion. Spontaneously beating hearts were used in all perfusions. Heart rate and aortic pressure were measured with a Biopac Systems Inc. blood pressure transducer connected to the aortic outflow line. Cardiac output and aortic flow were measured with Transonic […] ultrasonic flow probes in the preload and afterload lines, respectively. Coronary flow was calculated as the difference between cardiac output and aortic flow. […] Cardiac work was calculated as the product of systolic pressure and cardiac output. Cardiac efficiency was defined as a ratio of cardiac work to MVO2. […] All tested compounds were introduced into the perfusate five minutes into initiation of aerobic perfusion.

isolated rat hearts [3] = test: Isolated working rat heart, aerobic perfusion: cardiac function and efficiency; parameters: Cardiac Work (CO · PSP): unit not given beside the values; conditions: aerobically perfused, DCA 2 mM, diltiazem 0.8 μM, digoxin 3 nM, metoprolol 1 μM, dobutamine 1 μM
Protocol: (§1) Rat hearts were cannulated for isolated working heart perfusions as described in “An imbalance between glycolysis and glucose oxidation is a possible explanation for the detrimental effects of high levels of fatty acids during aerobic reperfusion of ischemic hearts.”, (J Pharmacol Exp Ther. 264:135 (1993); herein incorporated by reference. In brief, male Sprague-Dawley rats (0.3-0.35 kg) were anesthetized with pentobarbital sodium (60 mg/kg IP) and hearts were quickly excised, the aorta was cannulated and a retrograde perfusion at 37° C. was initiated at a hydrostatic pressure of 60 mm Hg. Hearts were trimmed of excess tissue, and the pulmonary artery and the opening to the left atrium were then cannulated. After 15 min of Langendorff perfusion, hearts were switched to the working mode by clamping the aortic inflow line from the Langendorff reservoir and opening the left atrial inflow line. The perfusate was delivered from an oxygenator into the left atrium at a constant preload pressure of 11 mm Hg. Perfusate was ejected from spontaneously beating hearts into a compliance chamber (containing 1 ml of air) and into the aortic outflow line. The afterload was set at a hydrostatic pressure of 80 mm Hg. All working hearts were perfused with Krebs'-Henseleit solution containing calcium 2.5 mmol/L, glucose 5.5 mmol/L, 3% bovine serum albumin (Fraction V, Boehringer Mannheim), and with 1.2 mmol/L palmitate. Palmitate was bound to the albumin as described previously (Saddik M., et al. J Biol. Chem. 267:3825-3831 (1992)). The perfusate was recirculated, and pH was adjusted to 7.4 by bubbling with a mixture containing 95% O2 and 5% CO2. For the aerobic model hearts, all tested compounds were introduced into the heart 5 minutes into the working mode following Langendorff Perfusion.
Spontaneously beating hearts were used in all perfusions. Heart rate and aortic pressure were measured with a Biopac Systems Inc. blood pressure transducer connected to the aortic outflow line. Cardiac output and aortic flow were measured with Transonic T206 ultrasonic flow probes in the preload and afterload lines, respectively. Coronary flow was calculated as the difference between cardiac output and aortic flow. The O2 contents of the perfusate entering and leaving the heart were measured using YSI™ micro oxygen electrodes placed in the preload and pulmonary arterial lines, respectively. Myocardial O2 consumption (MVO2) was calculated according to the Fick principle, using coronary flow rates and the arteriovenous difference in perfusate O2 concentration. Cardiac work was calculated as the product of systolic pressure and cardiac output. Cardiac efficiency was defined as a ratio of cardiac work to MVO2.

isolated rat hearts [4] = test: Isolated working rat heart, aerobic perfusion: glycolysis and glucose oxidation; parameters: glycolytic rates (glycolysis) / glucose oxidation rates: unit not given here; conditions: normal hearts, aerobic; FIG. 2, 4, 6, 8; control 3.430±0.604; DCA 2 mM, digoxin 3 nM, diltiazem 0.8 μM, dobutamine 1 μM, metoprolol 1 μM
Protocol: as §1
Glycolysis and glucose oxidation were measured simultaneously by perfusing hearts with [5-^3H/U-^14C] glucose (Liu H., et al. Am J Physiol. 270:H72-H80 (1996); Taegtmeyer Het al. Am J Cardiol. 80:3A-10A (1997)). The total myocardial ^3H2O production and ^14CO2 production were determined at 10 minute intervals for the entirety of the aerobic period, 60 minutes for normal hearts and 30 minutes for the global ischemia and low flow demand ischemia models. In the global ischemia model, the total myocardial ^3H2O and ^14CO2 production were determined at 20 minute intervals for the 60 minute reperfusion period. In the low flow demand ischemia model, the total myocardial ^3H2O and ^14CO2 production were determined at 10 minute intervals for the 30 minute reperfusion period. Glucose oxidation rates were determined by quantitative measurement of ^14CO2 production as described previously (Barbour R. L., et al. Biochemistr. 1923:6503-6062 (1984)).

[5] = low flow ischemia: aerobic period
[6] = low flow ischemia: ischemic period

Q: For `COc1ccc([C@@H]2Sc3ccccc3N(CCN(C)C)C(=O)[C@@H]2OC(C)=O)cc1` [Diltiazem, diltiazem], which “glycolysis, in words” value [1] is on record?
A: some attenuation

Q: What about the “peak systolic pressure, effect in words” value ([2]; low flow demand ischemia, Table 1) of the same compound?
A: decreased

Q: What about the “Aortic Outflow” value [2, 5] of the same compound?
A: 22 ± 1 mL/min

Q: What about the “Cardiac Output” value [2, 5] of the same compound?
A: 43 ± 1 mL/min

Q: What about the “Coronary Flow” value [2, 5] of the same compound?
A: 21 ± 1 mL/min

Q: What about the “HR × PSP” value [2, 5] of the same compound?
A: 28 ± 1 beats · min^−1 · mmHg · 10^−2

Q: What about the “Heart Rate” value [2, 5] of the same compound?
A: 215 ± 6 beats · min^−1

Q: What about the “Peak Systolic Pressure” value [2, 5] of the same compound?
A: 131 ± 6 mmHg

Q: What about the “Aortic Outflow” value [2, 6] of the same compound?
A: 11 ± 4 mL/min

Q: And the “Cardiac Output” value [2, 6]?
A: 24 ± 4 mL/min

Q: What about the “Coronary Flow” value [2, 6] of the same compound?
A: 13 ± 1 mL/min

Q: What about the “HR × PSP” value [2, 6] of the same compound?
A: 28 ± 1 beats · min^−1 · mmHg · 10^−2

Q: What about the “Heart Rate” value [2, 6] of the same compound?
A: 215 ± 6 beats · min^−1

Q: What about the “Peak Systolic Pressure” value [2, 6] of the same compound?
A: 131 ± 6 mmHg

Q: And the “cardiac function, in words” value ([2]; low-flow ischemic period, FIG. 23, FIG. 29)?
A: Neither diltiazem, DCA, nor DCA with diltiazem significantly affected

Q: And the “Aortic Outflow” value (isolated rat hearts [3])?
A: 21 ± 1 mL/min

Q: What about the “Cardiac Efficiency (CW · O2^−1)” value (isolated rat hearts [3]) of the same compound?
A: 1.63 ± 0.37

Q: What about the “Cardiac Output” value (isolated rat hearts [3]) of the same compound?
A: 41 ± 1 mL/min

Q: And the “Cardiac Work (CO · PSP)” value (isolated rat hearts [3])?
A: 51 ± 1

Q: What about the “Coronary Flow” value (isolated rat hearts [3]) of the same compound?
A: 20 ± 1 mL/min

Q: And the “HR × PSP” value (isolated rat hearts [3])?
A: 25 ± 1 beats · min^−1 · mmHg · 10^−2

Q: What about the “Heart Rate” value (isolated rat hearts [3]) of the same compound?
A: 202 ± 3 beats · min^−1

Q: What about the “O2 Consumption” value (isolated rat hearts [3]) of the same compound?
A: 38 ± 9 μmolO2 · g dry wt^−1 · min^−1

Q: What about the “Peak Systolic Pressure” value (isolated rat hearts [3]) of the same compound?
A: 127 ± 4 mmHg

Q: And the “Aortic Outflow” value (isolated rat hearts [3]; listed as diltiazem)?
A: 21 ± 1 mL/min

Q: What about the “Cardiac Work (CO · PSP)” value (isolated rat hearts [3]; listed as diltiazem) of the same compound?
A: 51±1

Q: And the “HR × PSP” value (isolated rat hearts [3]; listed as diltiazem)?
A: 25±1 beats · min^−1 · mmHg · 10^−2

Q: And the “Heart Rate” value (isolated rat hearts [3]; listed as diltiazem)?
A: 202±3 beats · min^−1

Q: What about the “glycolytic rates (glycolysis)” value (isolated rat hearts [4]) of the same compound?
A: 0.727±0.160
